Measured values: EPA's ToxValDB 9.5 (doi:10.2903/j.efsa.2009.1348)
In brackets after ≈: the same amount, converted by molar mass.

Tests used:
[1] = test system: Bird; conditions: for LD50: acute, unspecified
[2] = test system: Oncorhynchus mykiss; conditions: chronic/long-term; duration: 28 days
[3] = test system: Oryctolagus sp.; conditions: reproduction developmental; reproduction
[4] = test system: Bibionidae; conditions: chronic/long-term; duration: 28 days
[5] = test system: Rattus norvegicus
[6] = test system: Tagia sp.
[7] = chronic/long-term
[8] = test system: Canidae; conditions: chronic; duration: 1 years; oral; Dog Other; organ weight
[9] = test system: Daphnia magna; conditions: chronic/long-term; duration: 21 days; reproduction
[10] = test system: Aphidius rhopalosiphi
[11] = test system: Lepomis macrochirus; conditions: acute; duration: 96 hours; mortality
[12] = test system: Apis mellifera; conditions: acute; duration: 48 hours; oral; unspecified; mortality

SMILES | LD50 ([1]; oral, mortality) | NOEC [2] | NOEC ([1]; reproductive) | LC50 ([1]; short-term, oral, feed, mortality) | NOAEL [3] | NOEC [4] | LD50 ([5]; acute, oral, mortality) | NOAEL ([5]; chronic, duration: 2 years, organ weight) | NOAEL ([5]; reproduction developmental, body weight) | LC50 ([6]; acute, mortality) | NOEC ([6]; chronic/long-term) | NOAEL [7] | NOAEL [8] | NOEC [9] | LEL ([10]; chronic/long-term, reproduction) | LEL ([10]; not reported, mortality) | LC50 [11] | LD50 [12]
COC(=O)[C@@H](C)Oc1ccc(Oc2ncc(C(F)(F)F)cc2Cl)cc1 [Haloxyfop-P-methyl] | 1160 mg/kg-day | 0.0052 mg/L |  |  |  |  |  |  |  |  |  |  |  |  |  |  |  | 
C[C@@H](Oc1ccc(Oc2ncc(C(F)(F)F)cc2Cl)cc1)C(=O)O [Haloxyfop-P] | 414 mg/kg |  | 17.1 mg/kg-day | > 1110 mg/kg-day | 7.5 mg/kg-day | 2.5 mg/L | 300 mg/kg | 0.065 mg/kg-day | 0.065 mg/kg-day | 830 mg/kg | 810 g/ha | 1 mg/kg-day | 0.5 mg/kg-day | 0.509 mg/L | 5.7 g/ha | 108 g/ha | 0.0884 µg/mL (≈ 0.244 µM) | > 100 µg/piece
